Assay results reported in patent US20180305345A1 (priority 2015, published 2018).

What was measured:
VSVΔ51 in 786-0 cells = format: cell-based, human
[1] = tested on: VSVΔ51-resistant HT29 cells (human colon carcinoma); parameters: species or system Balb/c mice; settings: in vivo

SMILES	effect on viral growth after removal of compound at various times (VSVΔ51 in 786-0 cells)	mouse survival [1]	tumor growth ([1]; mouse)
O=C1OC(c2ccccc2)C(Cl)=C1Cl (stereo not shown) [Compound 1, 3,4-dichloro-5-phenyl-2,5-dihydrofuran-2-one, reference compound]	rapid and sustained	–	–
O=C1C(Cl)=C(Cl)C(O)N1Cc1ccccc1 (stereo not drawn) [Compound 10, α,β-dichloro-γ-hydroxy-N-benzyl-crotonic lactam]	rapid and sustained	–	–
O=C1C(Cl)=C(Cl)C(O)N1CCN1CCOCC1 (stereo not shown) [Compound 28, 3,4-dichloro-5-hydroxy-1-(2-morpholinoethyl)-1H-pyrrol-2(5H)-one]	–	increased mouse survival rates	reduced tumor growth
